Common to all, as to type: functional, cell-based
In test [1] the test system is HT-29. Kind of test: Antiproliferative activity against human HT-29 cells assessed as inhibition of cell growth at 1 to 10 uM incubated for 48 hrs by MTT assay. The conditions noted are these: dose 1-10 µM. For orientation: Formazan colour is commonly taken as a measure of viable cells.
A further test concerns MCF7. Kind of test: Antiproliferative activity against human MCF7 cells assessed as inhibition of cell growth incubated for 48 hrs by MTT assay. The conditions noted are these: MCF7, 48 h.
The next test deals with HepG2. Kind of test: Antiproliferative activity against human HepG2 cells assessed as inhibition of cell growth incubated for 48 hrs by MTT assay. The conditions noted are these: HepG2, 48 h.
Another test has as its system HeLa. Kind of test: Antiproliferative activity against human HeLa cells assessed as inhibition of cell growth incubated for 48 hrs by MTT assay.
Test [2] has as its system HT-29. Kind of test: Antiproliferative activity against human HT-29 cells assessed as inhibition of cell growth incubated for 48 hrs by MTT assay. The conditions noted are these: HT-29, 48 h.
The next test deals with K562. Kind of test: Antiproliferative activity against human K562 cells assessed as inhibition of cell growth incubated for 48 hrs by MTT assay. The conditions noted are these: K562, 48 h.

Active and inactive are the calls of the source. No cut-off for these calls is given here. A value given as a limit tells only on which side of the number the result lay.

`CCNC(=O)N1CCNc2cc(OC)ccc21`: in the test on HT-29 [1], the result was Active. With `COC(=O)c1ccc2c(c1)NCCN2C(=O)Nc1ccc(C)cc1`, the result in the test on HT-29 [1] was inactive. For `COc1ccc2c(c1)NCCN2C(=O)NCCCCl`, the result with HT-29 [1] was Active. In the case of `COc1ccc2c(c1)NCCN2C(=O)Nc1cccc2ccccc12`, the outcome in the test on HT-29 [1] was inactive. Regarding `Cc1ccc(NC(=O)N2CCNc3ncccc32)cc1`, the result in the test on HT-29 [1] was inactive. The same measure, in the same setting: the same measure for `COc1ccc2c(c1)NCCN2C(=O)Nc1ccc(N)cc1`: “Active”. On the same count and under the same terms, the same measure for `COc1ccc2c(c1)NCCN2C(=O)Nc1c(C)cccc1C`: “Active”; for `COc1ccc2c(c1)NCCN2C(=O)Nc1ccc(Cl)cc1`: “Active”.

As to `CNC(=O)c1cc(Oc2ccc(NC(=O)Nc3ccc(Cl)c(C(F)(F)F)c3)cc2)ccn1` [SORAFENIB], the IC50 (as a rule, the concentration at which inhibition is half-maximal) with MCF7 turned out to be 9.81 µM; with HepG2 it was 11.2 µM; in the test with HeLa, 10.3 µM; in the test on HT-29 [2] it was 3.56 µM.

In the case of `Cc1ccc(NC(=O)N2CCNc3ccccc32)cc1`, the result with HT-29 [1] was Active. Turning to `COc1ccc2c(c1)NCCN2C(=O)NC1CCCCC1`, the outcome in the test with HT-29 [1] was Active. Regarding `COc1ccc2c(c1)NCCN2C(=O)NC(C)(C)C`, the IC50 is 36.4 µM with MCF7; 15.7 µM in the test with HepG2; 28.3 µM in the test on K562; 25.4 µM in the test with HeLa; 28.4 µM with HT-29 [2]. The outcome in the test on HT-29 [1] was Active. In the case of `COC(=O)c1ccc([C@H]2c3[nH]c4ccccc4c3C[C@H](C(=O)OC)N2C(=O)CCl)cc1`, the IC50 in the test with HT-29 [2] worked out at 3.25 µM. On to `COc1ccc2c(c1)NCCN2C(=O)Nc1ccccc1OC`, for which the concentration for half-maximal inhibition (IC50) was > 50 µM in the test with MCF7; 43.5 µM in the test with HepG2; 49.1 µM with K562; 11.7 µM in the test on HeLa; 19.1 µM with HT-29 [2]. Moreover, the result in the test with HT-29 [1] was Active. With `O=C(Nc1cccc2ccccc12)N1CCNc2ccccc21`, the outcome in the test with HT-29 [1] was Active. Regarding `COc1ccc(OC)c(NC(=O)N2CCNc3cc(OC)ccc32)c1`, the IC50 with MCF7 was 40.3 µM; in the test on HepG2 it was 20.5 µM; with K562, 4.57 µM; in the test on HeLa it was 6.52 µM; with HT-29 [2], 14.9 µM. The result with HT-29 [1] was Active.

Take `COC(=O)c1ccc2c(c1)NCCN2C(=O)Nc1ccc(OC)cc1`: the result with HT-29 [1] was inactive.

As to `COc1ccc2c(c1)NCCN2C(=O)Nc1ccc(OC(F)(F)F)cc1`, in the test on HT-29 [1], the outcome was Active. For the compound `COc1ccc(NC(=O)N2CCNc3cc(OC)ccc32)cc1`, the result in the test on HT-29 [1] was Active. As to `COc1ccc2c(c1)NCCN2C(=O)Nc1ccccc1C(F)(F)F`, the IC50 in the test on MCF7 turned out to be 48 µM; in the test on HepG2, 40.4 µM; in the test with K562, 34.4 µM; in the test with HeLa, 16.6 µM; in the test on HT-29 [2], 28.6 µM. Moreover, in the test with HT-29 [1], the result was Active. As to `O=C(NCCCl)N1CCNc2ncccc21`, in the test on HT-29 [1], the outcome was inactive. For the compound `CCOc1ccccc1-n1c(C(C)N2CCN(C(=O)COc3ccc(Cl)cc3)CC2)nc2ccccc2c1=O` (stereo not drawn) [ERASTIN], the IC50 in the test with HT-29 [2] was determined as 20.9 µM. In the case of `COc1ccc(NC(=O)N2CCNc3ccccc32)cc1`, the result with HT-29 [1] was Active. Take `COc1ccc2c(c1)NCCN2C(=O)Nc1ccccc1C`: the half-maximal inhibitory concentration (IC50) was > 50 µM in the test with MCF7; 17.6 µM in the test on HepG2; 19.4 µM in the test with K562; 22.7 µM with HeLa; 26.6 µM in the test on HT-29 [2]. Also, the outcome with HT-29 [1] was Active. In the case of `COc1ccc2c(c1)NCCN2C(=O)Nc1ccc(Cl)c(C(F)(F)F)c1`, in the test on HT-29 [1], the outcome was Active. Same read-out and setting: the same measure for `COc1ccccc1NC(=O)N1CCNc2ncccc21`: “inactive”; for `CC(C)NC(=O)N1CCNc2ccccc21`: “Active”; for `COc1ccc2c(c1)NCCN2C(=O)Nc1ccc(C)cc1`: “Active”. Still for that read-out and setting: the same measure for `O=C(Nc1ccc(OC(F)(F)F)cc1)N1CCNc2ccccc21`: “Active”; for `COc1cccc(NC(=O)N2CCNc3cc(OC)ccc32)c1`: “Active”.

The values are drawn from ChEMBL document CHEMBL5505995, “Discovery of novel urea derivatives as ferroptosis and autophagy inducer for human colon cancer treatment” (Eur J Med Chem, 2024).
